Results published in patent US11034701B2, “Drug delivery and imaging chemical conjugate, formulations and methods of use thereof” (NanoPhagix LLC, priority 2015, dated 2021).

Experiment: Stability in HPLC mobile phases
Format: physicochemical
Conditions: HPLC mobile phases: MeOH/H2O/0.05% TFA, acetonitrile/H2O
Source text: • 1. The HPLC purity may not be true. […] The HPLC purity is greatly dependent upon the HPLC mobile phases. With MeOH/H2O/0.05% of TFA buffer, the HPLC purity is 90%. With MeOH/H2O mobile phase, the HPLC purity is 91.7%. With acetonitrile/H2O mobile phase, the HPLC purity is 99%. […] HPLC condition for the compound of Formula 2

| Compound | stability under HPLC conditions |
| --- | --- |
| CO[C@H]1C[C@@H]2CC[C@@H](C)[C@@](O)(O2)C(=O)C(=O)N2CCCC[C@H]2C(=O)O[C@H]([C@H](C)C[C@@H]2CC[C@@H](OC(=O)CCCCCOC(=O)c3c(I)c(NC(C)=O)c(I)c(NC(C)=O)c3I)[C@H](OC)C2)CC(=O)[C@H](C)/C=C(\C)[C@@H](O)[C@@H](OC)C(=O)[C@H](C)C[C@H](C)/C=C/C=C/C=C/1C [Formula 2] | not stable under some HPLC conditions |
| CO[C@H]1C[C@@H]2CC[C@@H](C)[C@@](O)(O2)C(=O)C(=O)N2CCCC[C@H]2C(=O)O[C@H]([C@H](C)C[C@@H]2CC[C@@H](O)[C@H](OC)C2)CC(=O)[C@H](C)/C=C(\C)[C@@H](O)[C@@H](OC)C(=O)[C@H](C)C[C@H](C)/C=C/C=C/C=C/1C [rapamycin] | same stability issues in HPLC mobile phases |
